Experimental findings from US20050148627A1, “Benzopyran compounds for use in the treatment and prevention of inflammation related conditions” (priority 2003, published 2005) are described below.

The target of this experiment is COX-1 (Homo sapiens, UniProt P23219). In words: biochemical.

Where “and” joins values, the source holds several entries; their conditions need not be identical. Identical values can stand only once. A value given as a limit tells only on which side of the number the result lay.

Chain of COX-1 (P23219 24-599): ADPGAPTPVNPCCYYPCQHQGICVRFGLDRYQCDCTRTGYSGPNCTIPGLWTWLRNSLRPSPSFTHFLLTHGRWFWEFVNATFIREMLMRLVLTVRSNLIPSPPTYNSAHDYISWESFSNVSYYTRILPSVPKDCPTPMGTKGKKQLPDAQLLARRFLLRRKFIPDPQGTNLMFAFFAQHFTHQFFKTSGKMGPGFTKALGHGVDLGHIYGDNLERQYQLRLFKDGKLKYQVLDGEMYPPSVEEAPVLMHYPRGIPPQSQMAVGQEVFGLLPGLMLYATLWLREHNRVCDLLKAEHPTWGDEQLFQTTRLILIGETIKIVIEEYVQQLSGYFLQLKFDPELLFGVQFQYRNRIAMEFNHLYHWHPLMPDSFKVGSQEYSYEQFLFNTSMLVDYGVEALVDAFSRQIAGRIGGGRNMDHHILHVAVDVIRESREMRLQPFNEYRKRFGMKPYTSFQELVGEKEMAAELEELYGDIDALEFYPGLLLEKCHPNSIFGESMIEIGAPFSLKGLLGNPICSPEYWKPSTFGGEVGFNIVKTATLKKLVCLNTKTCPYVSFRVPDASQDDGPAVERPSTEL

In turn, `CC(C)(C)Oc1c(Cl)cc2c(c1Cl)OC(C(F)(F)F)C(C(=O)O)=C2` (stereo not shown) [Example 1h, 7-tert-butoxy-6,8-dichloro-2-(trifluoromethyl)-2H-chromene-3-carboxylic acid] showed an IC50 of less than 0.137 µM.

Compound `O=C(O)COc1ccc2c(c1)OC(C(F)(F)F)C(C(=O)O)=C2` (stereo not shown) [Example 5g, 7-(carboxymethoxy)-2-(trifluoromethyl)-2H-chromene-3-carboxylic acid] yielded an IC50 of more than 100 µM.

As to `CCOc1cc(C)cc2c1OC(C(F)(F)F)C(C(=O)O)=C2` (stereo not shown) [Example 31, 8-ethoxy-6-methyl-2-(trifluoromethyl)-2H-chromene-3-carboxylic acid], the IC50 was more than 500 µM.

Consider `CC(C)(C=O)c1ccc2c(c1)OC(C(F)(F)F)C(C(=O)O)=C2` (stereo not shown) [Example 114, 7-(1,1-dimethyl-2-oxoethyl)-2-(trifluoromethyl)-2H-chromene-3-carboxylic acid], for which the IC50 is 63.9 µM.

As to `O=C(O)C1=Cc2cc(Cl)c(Cc3ccccc3)cc2OC1C(F)(F)F` (stereo not shown) [Example 9k, 7-benzyl-6-chloro-2-(trifluoromethyl)-2H-chromene-3-carboxylic acid], the IC50 was 0.603 µM and 2.17 µM.

For the compound `CC(C)c1cc2c(cc1Cl)C(Cl)=C(C(=O)O)C(C(F)(F)F)O2` (stereo not shown) [Example 9g, 4,6-dichloro-7-isopropyl-2-(trifluoromethyl)-2H-chromene-3-carboxylic acid], the IC50 was 24.2 µM and 25.1 µM.

Regarding `COc1ccc(Cc2cc3c(cc2Cl)C=C(C(=O)O)C(C(F)(F)F)O3)cc1Cl` (stereo not shown) [Example 9r, 6-chloro-7-(3-chloro-4-methoxybenzyl)-2-(trifluoromethyl)-2H-chromene-3-carboxylic acid], it took 80.8 µM to reach half-maximal inhibition (IC50).

With `CCCOc1cc(Cl)c2c(c1)C=C(C(=O)O)C(C(F)(F)F)O2` (stereo not shown) [Example 17f, 8-chloro-6-propoxy-2-(trifluoromethyl)-2H-chromene-3-carboxylic acid], the IC50 was 11.8 µM.

In turn, `Cc1c(OCC2CC2)c(Cl)cc2c1OC(C(F)(F)F)C(C(=O)O)=C2` (stereo not shown) [Example 3d, 6-chloro-7-(cyclopropylmethoxy)-8-methyl-2-(trifluoromethyl)-2H-chromene-3-carboxylic acid] displayed a half-inhibitory concentration (IC50) of less than 0.137 µM.

Take `O=C(O)C1=Cc2cccc(Oc3ccc([N+](=O)[O-])cc3F)c2OC1C(F)(F)F` (stereo not shown) [Example 25a, 8-(2-fluoro-4-nitrophenoxy)-2-(trifluoromethyl)-2H-chromene-3-carboxylic acid]: the IC50 was more than 500 µM.

Consider `CCCCOc1c(Cl)cc2c(c1C)OC(C(F)(F)F)C(C(=O)O)=C2` (stereo not shown) [Example 3f, 7-butoxy-6-chloro-8-methyl-2-(trifluoromethyl)-2H-chromene-3-carboxylic acid], for which the IC50 is 7.09 µM and 9.55 µM and 9.09 µM.

With `Cc1c(Cl)cc(C(C)C)c2c1C=C(C(=O)O)C(C(F)(F)F)O2` (stereo not shown) [Example 6, 6-chloro-8-isopropyl-5-methyl-2-(trifluoromethyl)-2H-chromene-3-carboxylic acid], the IC50 was > 100 µM and 188 µM and 194 µM.

`CCCCc1cc(OC(F)(F)F)cc2c1OC(C(F)(F)F)C(C(=O)O)=C2` (stereo not shown) [Example 21r, 8-butyl-6-(trifluoromethoxy)-2-(trifluoromethyl)-2H-chromene-3-carboxylic acid] displayed an IC50 of 83.8 µM.

As for `COc1cc(Cl)c(Cl)c2c1OC(C(F)(F)F)C(C(=O)O)=C2` (stereo not shown) [Example 23e, 5,6-dichloro-8-methoxy-2-(trifluoromethyl)-2H-chromene-3-carboxylic acid], the 50% inhibitory concentration (IC50) is 0.471 µM and < 0.132 µM.

In turn, `Cc1ccc(Cc2cc3c(cc2Cl)C=C(C(=O)O)C(C(F)(F)F)O3)cc1Cl` (stereo not shown) [Example 9y, 6-chloro-7-(3-chloro-4-methylbenzyl)-2-(trifluoromethyl)-2H-chromene-3-carboxylic acid] had an IC50 of 4.69 µM.

`O=C(O)C1=Cc2cc(Cl)c(OCC3CCCC3)cc2OC1C(F)(F)F` (stereo not shown) [Example 2d, 6-chloro-7-(cyclopentylmethoxy)-2-(trifluoromethyl)-2H-chromene-3-carboxylic acid]: the IC50 was 44.3 µM.

Consider `Cc1cc2c(cc1Cc1ccccc1)OC(C(F)(F)F)C(C(=O)O)=C2` (stereo not shown) [Example 42a, 7-benzyl-6-methyl-2-(trifluoromethyl)-2H-chromene-3-carboxylic acid], for which the IC50 is 28.7 µM and 25.2 µM and 14.7 µM.

Regarding `C=C(c1ccccc1)c1ccc2c(c1)OC(C(F)(F)F)C(C(=O)O)=C2` (stereo not shown) [Example 37a, 7-(1-phenylvinyl)-2-(trifluoromethyl)-2H-chromene-3-carboxylic acid], the IC50 is 69.4 µM.

On to `COc1cc2c(c(Cl)c1Cl)OC(C(F)(F)F)C(C(=O)O)=C2` (stereo not shown) [Example 19, 7,8-dichloro-6-methoxy-2-(trifluoromethyl)-2H-chromene-3-carboxylic acid], for which the IC50 is 82.1 µM and 34.7 µM.

On to `COc1cc2c(cc1Cl)C=C(C(=O)O)C(C(F)(F)F)O2` (stereo not shown) [Example 2i, 6-chloro-7-methoxy-2-(trifluoromethyl)-2H-chromene-3-carboxylic acid], for which the IC50 was > 100 µM and 187 µM.

For `Nc1ccc(Oc2cccc3c2OC(C(F)(F)F)C(C(=O)O)=C3)c(F)c1` (stereo not shown) [Example 25b, 8-(4-amino-2-fluorophenoxy)-2-(trifluoromethyl)-2H-chromene-3-carboxylic acid], the half-inhibitory concentration (IC50) was < 0.686 µM and < 0.137 µM and 0.14 µM.

In turn, `Cc1c(O)c(Cl)cc2c1OC(C(F)(F)F)C(C(=O)O)=C2` (stereo not shown) [Example 3i, 6-chloro-7-hydroxy-8-methyl-2-(trifluoromethyl)-2H-chromene-3-carboxylic acid] registered an IC50 of more than 97.6 µM.

With `O=C(O)C1=Cc2cccc(OCc3ccoc3)c2OC1C(F)(F)F` (stereo not shown) [Example 25h, 8-(3-furylmethoxy)-2-(trifluoromethyl)-2H-chromene-3-carboxylic acid], the IC50 was > 100 µM and 72.3 µM.

Consider `O=C(O)C1=Cc2cc(O)cc(Cl)c2OC1C(F)(F)F` (stereo not shown) [Example 17b, 8-chloro-6-hydroxy-2-(trifluoromethyl)-2H-chromene-3-carboxylic acid], for which the half-maximal inhibitory concentration (IC50) was > 100 µM and 455 µM.

Take `COc1c(Cl)c(Cl)c(Br)c2c1OC(C(F)(F)F)C(C(=O)O)=C2` (stereo not shown) [Example 30, 5-bromo-6,7-dichloro-8-methoxy-2-(trifluoromethyl)-2H-chromene-3-carboxylic acid]: the IC50 was 193 µM and > 100 µM.

For `CCCc1cc(OC(F)(F)F)cc2c1OC(C(F)(F)F)C(C(=O)O)=C2` (racemic) [Example 21i, 8-propyl-6-(trifluoromethoxy)-2-(trifluoromethyl)-2H-chromene-3-carboxylic acid], the IC50 is 20.5 µM and 13.6 µM.

In the case of `O=C(O)C1=Cc2cc(OC3CCCCC3)cc(Cl)c2OC1C(F)(F)F` (stereo not shown) [Example 17g, 8-chloro-6-(cyclohexyloxy)-2-(trifluoromethyl)-2H-chromene-3-carboxylic acid], the IC50 was 0.5 µM and 0.392 µM.

For `Cc1cc(C)c2c(c1)C=C(C(=O)O)[C@@H](C(F)(F)F)O2` (single isomer, unassigned) [Example 32b], the IC50 was more than 100 µM.

Compound `COCCOc1cc2c(cc1Cl)C=C(C(=O)O)C(C(F)(F)F)O2` (stereo not shown) [Example 2h, 6-chloro-7-(2-methoxyethoxy)-2-(trifluoromethyl)-2H-chromene-3-carboxylic acid] yielded an IC50 of more than 100 µM.

Take `CCOc1cc(Br)cc2c1OC(C(F)(F)F)C(C(=O)O)=C2` (stereo not shown) [Example 26, 6-bromo-8-ethoxy-2-(trifluoromethyl)-2H-chromene-3-carboxylic acid]: the IC50 was more than 100 µM.

For `COc1ccc2c(c1C)OC(C(F)(F)F)C(C(=O)O)=C2` (stereo not shown) [Example 5c, 7-methoxy-8-methyl-2-(trifluoromethyl)-2H-chromene-3-carboxylic acid], the IC50 is > 100 µM and 478 µM.

The term IC50 denotes the midpoint of a concentration-inhibition curve.
